# Results reported in paper PMC9816194, “Use of the head-twitch response to investigate the structure–activity relationships of 4-thio-substituted 2,5-dimethoxyphenylalkylamines” (Psychopharmacology, 2022).
# Where two headings read alike, the source gives them in different places.
# Legend:
# human 5-HT2A receptor [1] = target: T1, human 5-HT2A receptor (Homo sapiens, UniProt P28223); test: 5-HT2A receptor binding, [3H]ketanserin displacement; design: expressed in transfected cells; host or cells: HEK 293 (transient), membrane preparations
# Method: (§1) 5-HT receptor binding affinities were assessed as previously described in detail (Luethi et al. [2018]). In brief, membrane preparations of transiently transfected HEK 293 cells were incubated with selective radioligands at concentrations equal to the corresponding Kd and then ligand displacement by the test drugs was measured. The difference between the total binding and the nonspecific binding determined in the presence of selective competitors was defined as specific binding. The following radioligands and competitors, respectively, were used: 0.40 nM [^3H]ketanserin and 10 μM spiperone (serotonin 5-HT2A receptor), 1.4 nM [^3H]mesulergine and 10 μM mianserin (serotonin 5-HT2C receptor). The IC50 values of the radioligand binding assays were determined using nonlinear regression curves for every drug in a one-site model. Ki values corresponding to the dissociation constants were calculated with the Cheng-Prusoff equation.
# humans = details: cited from earlier work; for Human potency range: dose range active as psychedelic in humans
# h5-HT2C receptors = target: T2, h5-HT2C receptors (Homo sapiens, UniProt P28335); test: 5-HT2C receptor binding, [3H]mesulergine displacement
# T2 construct: expressed in transfected cells; host or cells: HEK 293 (transient), membrane preparations
# T2 sequence (P28335 33-458): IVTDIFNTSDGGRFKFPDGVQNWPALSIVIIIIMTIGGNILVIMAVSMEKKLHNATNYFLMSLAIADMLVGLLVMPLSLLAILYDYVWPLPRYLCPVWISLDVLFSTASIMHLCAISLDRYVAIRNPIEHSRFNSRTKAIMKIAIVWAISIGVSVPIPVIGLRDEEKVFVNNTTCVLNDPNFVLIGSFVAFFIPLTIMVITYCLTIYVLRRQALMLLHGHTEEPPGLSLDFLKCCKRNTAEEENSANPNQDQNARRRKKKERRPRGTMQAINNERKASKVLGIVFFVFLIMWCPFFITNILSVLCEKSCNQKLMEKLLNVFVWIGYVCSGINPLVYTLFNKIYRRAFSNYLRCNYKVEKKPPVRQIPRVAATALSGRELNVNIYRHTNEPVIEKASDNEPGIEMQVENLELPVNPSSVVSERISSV
# Method: as §1
# human 5-HT2B receptor = target: T3, human 5-HT2B receptor (Homo sapiens, UniProt P41595); test: Agonist activity at the 5-HT2B receptor, FLIPR calcium flux in HEK 293 cells; format: cell-based; details: for Emax: HEK293, calcium flux, read-out: h5-HT2B Emax
# T3 construct: expressed in transfected cells
# Method: HEK 293 cells stably expressing the human 5-HT2B receptor were incubated overnight in poly-D-lysine-coated 96-well plates at a density of 50,000 cells per well and 37 °C. Thereafter, the growth medium was removed by snap inversion and 200 μL of no wash dye (FLIPR calcium 6 assay kit; Molecular Devices, Sunnyvale, CA, USA) was added to each well. The plates were incubated for 2 h at 37 °C and then placed into a FLIPR. Fifty microliters of the test drugs diluted in assay buffer was added to each well online and the increase in fluorescence was measured for 51 s. EC50 values were derived from the concentration–response curves using nonlinear regression.
# human 5-HT2A receptor [2] = target: T1, human 5-HT2A receptor; test: Agonist activity at the 5-HT2A receptor, FLIPR calcium flux in NIH-3T3 cells; format: cell-based; design: expressed in transfected cells; details: for Emax: NIH3T3, calcium flux, relative to 5-HT, read-out: h5-HT2A Emax
# Method: NIH-3T3 cells stably expressing the human 5-HT2A receptor were incubated in HEPES-Hank’s Balanced Salt Solution (HBSS) buffer (Gibco, Zug, Switzerland; 70,000 cells/100 μL) for 1 h at 37 °C in poly-D-lysine-coated 96-well plates. Thereafter, 100 μL of dye solution (fluorescence imaging plate reader [FLIPR] calcium 5 assay kit dye solution; Molecular Devices, Sunnyvale, CA, USA) was added to each well and the plates were incubated for 1 h at 37 °C. The plates were then placed into a FLIPR and 25 μL of the test drugs diluted in HEPES-HBSS containing 250 mM probenicid was added to each well online. The increase in fluorescence was measured for 51 s, and EC50 values were derived from the concentration–response curves using nonlinear regression.
# male C57BL/6 J mice = test: Head-twitch response (HTR), magnetometer coil recording; format: in vivo; details: for HTR Counts (Mean ± SEM): 30 min; for ED50: Mus musculus, 0.5 h, HTR, IP, 30 min recording, male C57BL/6 J mice; for maximum number of head twitches (mean ± SEM): during the 30-min assessment period; for reduction of HTR potency versus 2C-T-7: replacement of the 4-n-propylthio group of 2C-T-7
# Method: Male C57BL/6 J mice (Jackson Laboratory, Bar Harbor, ME) were housed in a vivarium at the University of California San Diego (UCSD), which is an AAALAC-approved animal facility that complies with Federal and State requirements for care and treatment of laboratory animals. The mice (6–8 weeks old) were housed in a climate-controlled room with a reversed light-cycle (lights on at 19:00 h, off at 07:00 h) up to 4 animals per cage. Food and water were provided ad libitum, except during behavioral testing which occurred between 10:00 and 18:00 h. All experiments were conducted according to NIH guidelines and were approved by the UCSD animal care committee.
# Head movement was recorded using a head-mounted magnet and a magnetometer coil (Halberstadt and Geyer [2013]). Briefly, mice were anesthetized, a small incision was made in the scalp, and a neodymium magnet was attached to the dorsal surface of the cranium using dental cement. Following a 1–2-week recovery period, behavioral experiments were conducted in a well-lit room with at least 7 days between sessions to avoid any carryover effects. Mice were treated with vehicle or test compound and then placed in a glass cylinder surrounded by a magnetometer coil and activity was recorded for 30 min. All test substances were administered IP dissolved in saline using an injection volume of 5 mL/kg. Coil voltage was filtered (5–10 kHz lowpass), digitized (20 kHz sampling rate), and saved to disk using a Powerlab/8SP with LabChart v 7.3.2 (ADInstruments, Colorado Springs, CO). To detect head twitches, events in the recordings were converted into scalograms using a wavelet transform and then the images were classified using a multistage approach combining the deep convolutional neural network (CNN) ResNet-50 with a support vector machine (SVM) algorithm (Halberstadt [2020]). HTR counts were analyzed using a one-way Welch analysis of variance (ANOVA). Post hoc pairwise comparisons were performed using Dunnett’s test. […] Median effective doses (ED50 values) and 95% confidence intervals were calculated using nonlinear regression (Prism ver. 9.0.2, GraphPad Software Inc, San Diego, CA, USA).
# human 5-HT2A receptor [3] = target: T1, human 5-HT2A receptor; design: expressed in transfected cells; host or cells: HEK 293 (transient), membrane preparations; details: read-out: 5-HT2A Ki; [3H]ketanserin; ref Luethi et al. (2018); cited from earlier work
# mice = details: ref Gonzalez-Maeso et al. 2007; Halberstadt and Geyer 2013; cited from earlier work
# [4] = read-out: ED50 µmol/kg (95% CI)
# [5] = p.o., ref Shulgin and Shulgin 1991, Trachsel et al. 2013
# T3 sequence (P41595 whole entry): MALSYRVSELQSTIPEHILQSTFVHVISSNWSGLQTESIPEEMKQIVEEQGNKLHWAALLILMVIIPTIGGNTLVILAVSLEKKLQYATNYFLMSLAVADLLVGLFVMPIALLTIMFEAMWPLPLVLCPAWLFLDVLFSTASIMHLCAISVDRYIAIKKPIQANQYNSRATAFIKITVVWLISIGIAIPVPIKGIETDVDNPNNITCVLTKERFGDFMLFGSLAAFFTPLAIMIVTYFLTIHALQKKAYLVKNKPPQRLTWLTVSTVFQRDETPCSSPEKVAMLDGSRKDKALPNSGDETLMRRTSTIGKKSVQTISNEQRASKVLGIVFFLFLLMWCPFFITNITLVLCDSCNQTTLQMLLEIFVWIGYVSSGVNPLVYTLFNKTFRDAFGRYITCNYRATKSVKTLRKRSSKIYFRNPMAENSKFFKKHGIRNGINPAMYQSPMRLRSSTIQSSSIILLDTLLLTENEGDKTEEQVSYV
# T1 sequence (P28223 whole entry): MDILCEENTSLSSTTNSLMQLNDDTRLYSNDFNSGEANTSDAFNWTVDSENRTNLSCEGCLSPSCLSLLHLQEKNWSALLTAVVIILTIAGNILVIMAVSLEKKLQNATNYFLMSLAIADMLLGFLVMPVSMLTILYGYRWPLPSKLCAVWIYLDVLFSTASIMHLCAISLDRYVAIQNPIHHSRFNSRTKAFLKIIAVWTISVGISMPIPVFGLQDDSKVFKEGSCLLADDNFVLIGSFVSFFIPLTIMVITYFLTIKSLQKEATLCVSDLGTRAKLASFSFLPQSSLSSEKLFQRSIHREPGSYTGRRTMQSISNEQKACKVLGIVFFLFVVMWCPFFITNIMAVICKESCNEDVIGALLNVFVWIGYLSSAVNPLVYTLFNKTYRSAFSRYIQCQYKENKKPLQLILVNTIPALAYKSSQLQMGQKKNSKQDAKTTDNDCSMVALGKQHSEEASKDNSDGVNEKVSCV
SMILES,HTR Counts (Mean ± SEM) (male C57BL/6 J mice; 0.3 mg/kg IP),HTR Counts (Mean ± SEM) (male C57BL/6 J mice; 1 mg/kg IP),HTR Counts (Mean ± SEM) (male C57BL/6 J mice; 3 mg/kg IP),HTR Counts (Mean ± SEM) (male C57BL/6 J mice; 10 mg/kg IP),ED50 (male C57BL/6 J mice; [4]) [µmol/kg],ED50 (male C57BL/6 J mice; read-out: ED50 mg/kg (95% CI)) [mg/kg],Ki (human 5-HT2A receptor [3]) [nM],also measured
"COc1cc(SC)c(OC)cc1CC(C)N.Cl (stereo not shown) [ALEPH, 2,5-Dimethoxy-4-methylthioamphetamine hydrochloride]",19.4 ± 1.2,72.0 ± 12.1,115.0 ± 20.9,74.0 ± 13.5,2.88,0.8,–,"Ki (human 5-HT2A receptor [1]): 77.8 nM; Human active dose range (humans; ref Shulgin and Nichols 1978, Shulgin and Shulgin 1991): 5 to 15 mg; Ki (h5-HT2C receptors): 355 ± 76 nM; EC50 (human 5-HT2B receptor): 19.2 ± 1.7 nM; Emax (human 5-HT2B receptor): 51 ± 2.6%; EC50 (human 5-HT2A receptor [2]): 10.3 ± 0.6 nM; Emax (human 5-HT2A receptor [2]): 80 ± 2.3%; HTR Counts (Mean ± SEM) (male C57BL/6 J mice; 0.1 mg/kg IP): 7.8 ± 1.2"
"COc1cc(SC)c(OC)cc1CCN.Cl [Compound 2C-T, 2,5-Dimethoxy-4-methylthiophenethylamine hydrochloride]",–,–,49.3 ± 3.1,–,13.8,3.65,49,"Human potency range (humans; ref Shulgin and Shulgin (1991)): 60–100 mg ^[5]; Human active dose range (humans; ref Shulgin and Shulgin 1991, Shulgin et al. 1991): 60 to 100 mg; HTR Counts (Mean ± SEM) (male C57BL/6 J mice; 1.5 mg/kg IP): 22.4 ± 5.9; HTR Counts (Mean ± SEM) (male C57BL/6 J mice; 6 mg/kg IP): 61.0 ± 4.7; HTR Counts (Mean ± SEM) (male C57BL/6 J mice; 12 mg/kg IP): 97.2 ± 8.1; HTR Counts (Mean ± SEM) (male C57BL/6 J mice; 24 mg/kg IP): 64.8 ± 6.0; maximum number of head twitches (mean ± SEM) (male C57BL/6 J mice): 97.2 ± 8.1"
"C=C(C)CSc1cc(OC)c(CCN)cc1OC.Cl [Compound 2C-T-3, 2,5-dimethoxy-4-methallylthiophenethylamine hydrochloride]",11.3 ± 3.6,26.2 ± 3.4,67.6 ± 5.4,67.8 ± 7.5,6.12,1.86,11,HTR Counts (Mean ± SEM) (male C57BL/6 J mice; 30 mg/kg IP): 2.2 ± 1.4; reduction of HTR potency versus 2C-T-7 (male C57BL/6 J mice): more than 50%
"C=CCSc1cc(OC)c(CCN)cc1OC.Cl [Compound 2C-T-16, 4-allylthio-2,5-dimethoxyphenethylamine hydrochloride]",–,–,101.6 ± 20.4,–,5.8,1.68,9.2,"HTR Counts (Mean ± SEM) (male C57BL/6 J mice; 1.5 mg/kg IP): 49.6 ± 11.1; HTR Counts (Mean ± SEM) (male C57BL/6 J mice; 6 mg/kg IP): 100.6 ± 9.6; HTR Counts (Mean ± SEM) (male C57BL/6 J mice; 12 mg/kg IP): 51.2 ± 18.3; HTR potency relative to 2C-T-7 (male C57BL/6 J mice; mouse, in vivo): about 50%; reduction of HTR potency versus 2C-T-7 (male C57BL/6 J mice): more than 50%"
"CCCCSc1cc(OC)c(CCN)cc1OC.Cl [Compound 2C-T-19, 4-n-butylthio-2,5-dimethoxyphenethylamine hydrochloride]",14.2 ± 3.4,19.8 ± 1.1,26.6 ± 9.4,12.0 ± 4.1,3.27,1,6.9,maximum number of head twitches (mean ± SEM) (male C57BL/6 J mice): 26.6 ± 9.4
"COc1cc(SCCF)c(OC)cc1CCN.Cl [Compound 2C-T-21, 2,5-dimethoxy-4-(2-fluoroethylthio)phenethylamine hydrochloride]",8.8 ± 2.1,19.8 ± 2.7,61.8 ± 5.0,72.6 ± 9.4,5.58,1.65,–,Ki (human 5-HT2A receptor [1]): 27.7 ± 6.2 nM; Human potency range (humans; ref Shulgin and Shulgin (1991)): 8–12 mg ^[5]; Human active dose range (humans; [5]): 8 to 20 mg; Ki (h5-HT2C receptors): 72.7 ± 10.6 nM; EC50 (human 5-HT2B receptor): 102 ± 24 nM; Emax (human 5-HT2B receptor): 32 ± 1.8%; EC50 (human 5-HT2A receptor [2]): 9.7 ± 0.1 nM; Emax (human 5-HT2A receptor [2]): 69 ± 4.8%
"COc1cc(SCC(F)F)c(OC)cc1CCN.Cl [Compound 2C-T-21.5, 4-(2,2-difluoroethylthio)-2,5-dimethoxyphenethylamine hydrochloride]",–,–,39.4 ± 7.2,–,9.97,3.13,14,Human potency range (humans; ref Trachsel et al. (2013)): 12–30 mg ^[6]; Human active dose range (humans; [5]): 12 to 30 mg; HTR Counts (Mean ± SEM) (male C57BL/6 J mice; 1.5 mg/kg IP): 26.0 ± 5.4; HTR Counts (Mean ± SEM) (male C57BL/6 J mice; 6 mg/kg IP): 85.6 ± 9.8; HTR Counts (Mean ± SEM) (male C57BL/6 J mice; 12 mg/kg IP): 40.4 ± 13.0
"COc1cc(SCCCF)c(OC)cc1CCN.Cl [Compound 2C-T-28, 4-(3-fluoropropylthio)-2,5-dimethoxyphenethylamine hydrochloride]",7.4 ± 2.0,25.4 ± 4.1,42.0 ± 6.1,27.2 ± 7.4,3.49,1.08,17,Human active dose range (humans; [5]): 8 to 20 mg
"CCN(CC)C(=O)[C@@H]1C=C2c3cccc4[nH]cc(c34)C[C@H]2N(C)C1 [LSD, lysergic acid diethylamide, reference compound]",–,–,–,–,–,–,–,induction of HTR (in words) (mice): induces the HTR
"COc1cc(CC(C)N)cc(OC)c1OC (stereo not shown) [TMA, 3,4,5-trimethoxyamphetamine, reference compound]",–,–,–,–,–,–,–,Human potency range (humans; ref Shulgin and Shulgin (1991)): 100 to 250 mg
"CCN(CC)C(=O)N[C@H]1C=C2c3cccc4[nH]cc(c34)C[C@H]2N(C)C1 [lisuride, reference compound]",–,–,–,–,–,–,–,induction of HTR (in words) (mice): does not induce the response
